Earlier results on one molecule are cited in patent US20250360174A1, “ENGINEERED BACTERIA, ENGINEERED BIOFILMS, AND LIVING MATERIALS BASED ON BACILLUS SUBTILIS” (EAST CHINA UNIVERSITY OF SCIENCE AND TECHNOLOGY, priority 2024, published 2025).

This data set deals with RAW264.7 cells.

`O[C@H]1[C@@H]2OC[C@H](O[C@H]1O)[C@H]2O` [L-AHG, 3,6-anhydro-α-L-galactose]: the anti-inflammatory activity result is on record as “has been shown to have anti-inflammatory activity”.
